Measured values: publication PMC3607822 (The Journal of General Physiology, 2013)
Read-outs that look alike come from different tables or passages of the source. One block for each molecule: values may come before it.

Legend:
Type in all cases: biochemical
[1] = biological target: T1, heteromeric CNGA3+CNGB3 channels (Homo sapiens, UniProt Q16281+Q9NQW8); experiment: Inside-out patch clamp, heteromeric CNGA3+CNGB3; details: for EC50: read-out: K1/2 cGMP
T1 sequence (Q16281 1-694): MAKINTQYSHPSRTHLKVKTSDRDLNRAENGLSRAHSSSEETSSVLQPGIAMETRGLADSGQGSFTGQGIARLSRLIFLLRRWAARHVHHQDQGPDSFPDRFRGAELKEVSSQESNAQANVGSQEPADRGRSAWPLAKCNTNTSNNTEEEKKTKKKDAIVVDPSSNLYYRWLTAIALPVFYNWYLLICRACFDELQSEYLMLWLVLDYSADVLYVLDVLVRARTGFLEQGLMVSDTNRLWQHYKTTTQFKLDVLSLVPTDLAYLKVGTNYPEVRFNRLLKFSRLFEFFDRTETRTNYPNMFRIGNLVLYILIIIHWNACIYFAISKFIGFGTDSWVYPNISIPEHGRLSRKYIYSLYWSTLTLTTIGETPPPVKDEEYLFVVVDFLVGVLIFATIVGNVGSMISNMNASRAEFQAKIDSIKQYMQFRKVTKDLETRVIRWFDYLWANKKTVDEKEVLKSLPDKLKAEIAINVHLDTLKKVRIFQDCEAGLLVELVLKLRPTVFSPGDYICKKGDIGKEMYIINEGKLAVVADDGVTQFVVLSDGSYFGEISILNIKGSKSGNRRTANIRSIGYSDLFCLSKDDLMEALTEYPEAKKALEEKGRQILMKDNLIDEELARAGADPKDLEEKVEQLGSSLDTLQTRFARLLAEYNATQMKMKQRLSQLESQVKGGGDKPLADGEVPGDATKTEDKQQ
T1 sequence (Q9NQW8 1-809): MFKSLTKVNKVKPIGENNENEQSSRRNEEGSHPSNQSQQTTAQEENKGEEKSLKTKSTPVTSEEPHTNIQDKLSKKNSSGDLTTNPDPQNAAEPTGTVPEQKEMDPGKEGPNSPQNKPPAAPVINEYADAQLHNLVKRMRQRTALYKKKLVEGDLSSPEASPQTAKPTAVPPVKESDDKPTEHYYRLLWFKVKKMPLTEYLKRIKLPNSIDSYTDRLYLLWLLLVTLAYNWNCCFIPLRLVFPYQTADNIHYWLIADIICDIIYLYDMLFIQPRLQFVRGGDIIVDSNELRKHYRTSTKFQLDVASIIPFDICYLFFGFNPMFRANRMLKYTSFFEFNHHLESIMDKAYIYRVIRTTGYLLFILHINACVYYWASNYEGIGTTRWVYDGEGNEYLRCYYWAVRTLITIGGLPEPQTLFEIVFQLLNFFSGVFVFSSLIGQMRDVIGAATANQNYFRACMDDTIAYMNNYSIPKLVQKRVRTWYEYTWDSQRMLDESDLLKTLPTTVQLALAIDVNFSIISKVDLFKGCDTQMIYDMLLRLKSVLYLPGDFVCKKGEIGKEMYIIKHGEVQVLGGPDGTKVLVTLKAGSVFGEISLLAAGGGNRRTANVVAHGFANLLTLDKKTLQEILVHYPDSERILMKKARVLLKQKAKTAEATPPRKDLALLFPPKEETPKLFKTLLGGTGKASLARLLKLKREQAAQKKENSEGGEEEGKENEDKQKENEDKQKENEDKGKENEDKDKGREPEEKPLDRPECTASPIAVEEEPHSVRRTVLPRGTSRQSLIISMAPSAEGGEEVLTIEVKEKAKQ

[2] = biological target: T2, human CNGA3 wild-type homomeric channels (Homo sapiens, UniProt Q16281); experiment: Inside-out patch clamp, homomeric CNGA3 wild type expressed in X. laevis oocytes
T2 sequence (Q16281 1-694): T1 sequence (Q16281 1-694)

[3] = biological target: CNGA3 D609M channels (Homo sapiens, UniProt Q16281, D609M); experiment: Inside-out patch clamp, CNGA3 D609M
[4] = biological target: T3, CNGA3 N7R-A, 613X channels (Homo sapiens, UniProt Q16281, R101A/R103A/R72A/R75A/R81A/R82A/R86A); experiment: Inside-out patch clamp, CNGA3 N7R-A, 613X
T3 sequence (Q16281 1-612 R72A/R75A/R81A/R82A/R86A/R101A/R103A limits assumed): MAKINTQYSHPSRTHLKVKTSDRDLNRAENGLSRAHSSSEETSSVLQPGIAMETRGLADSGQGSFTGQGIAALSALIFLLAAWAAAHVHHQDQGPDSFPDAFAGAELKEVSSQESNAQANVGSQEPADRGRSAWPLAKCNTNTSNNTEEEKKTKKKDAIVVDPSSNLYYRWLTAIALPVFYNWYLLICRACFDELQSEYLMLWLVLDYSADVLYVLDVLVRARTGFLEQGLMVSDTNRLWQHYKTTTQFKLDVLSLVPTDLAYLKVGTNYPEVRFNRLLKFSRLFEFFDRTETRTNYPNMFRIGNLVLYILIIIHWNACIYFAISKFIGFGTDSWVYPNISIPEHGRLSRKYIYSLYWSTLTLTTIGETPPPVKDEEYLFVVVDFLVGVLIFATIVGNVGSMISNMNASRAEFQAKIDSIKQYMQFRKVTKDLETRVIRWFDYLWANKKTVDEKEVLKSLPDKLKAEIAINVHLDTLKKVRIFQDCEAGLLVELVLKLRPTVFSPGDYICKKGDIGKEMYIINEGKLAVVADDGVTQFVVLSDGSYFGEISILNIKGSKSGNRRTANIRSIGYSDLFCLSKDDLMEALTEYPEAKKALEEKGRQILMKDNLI

[5] = representative patch, before PIP2
[6] = representative patch, before PIP3
[7] = read-out: K1/2 cGMP, +80 mV, no PIPn
[8] = mean, after 1 µM PIP3 or 10 µM PIP2
[9] = representative patch, after PIP3 or PIP2

CNGA3 D609M channels, sequence (Q16281 whole entry D609M): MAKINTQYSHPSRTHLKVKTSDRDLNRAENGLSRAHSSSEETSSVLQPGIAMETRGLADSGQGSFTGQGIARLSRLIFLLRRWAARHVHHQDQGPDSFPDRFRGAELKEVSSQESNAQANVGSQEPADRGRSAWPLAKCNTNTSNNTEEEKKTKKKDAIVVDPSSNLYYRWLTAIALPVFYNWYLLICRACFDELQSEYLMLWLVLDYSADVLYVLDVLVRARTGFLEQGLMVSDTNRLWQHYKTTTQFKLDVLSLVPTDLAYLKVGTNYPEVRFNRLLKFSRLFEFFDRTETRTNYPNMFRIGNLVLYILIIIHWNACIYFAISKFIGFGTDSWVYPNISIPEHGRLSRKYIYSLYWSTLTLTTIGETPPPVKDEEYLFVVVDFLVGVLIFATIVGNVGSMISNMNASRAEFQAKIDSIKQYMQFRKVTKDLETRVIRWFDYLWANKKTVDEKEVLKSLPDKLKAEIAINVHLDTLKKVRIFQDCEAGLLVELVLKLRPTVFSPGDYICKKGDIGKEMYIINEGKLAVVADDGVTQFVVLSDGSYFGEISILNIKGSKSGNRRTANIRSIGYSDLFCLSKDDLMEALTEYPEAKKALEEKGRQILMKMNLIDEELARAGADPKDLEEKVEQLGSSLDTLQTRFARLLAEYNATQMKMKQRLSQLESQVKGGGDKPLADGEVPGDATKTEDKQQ

- Hill coefficient h ([1]; mean, before PIPn): 1.9
- EC50 ([1]; mean, before PIPn): 13.5 ± 0.6 µM
- EC50 [1, 5]: 12.8 µM
- EC50 [1, 6]: 16.1 µM
- Hill coefficient h [1, 5]: 1.8
- Hill coefficient h [1, 6]: 2.05
- Hill coefficient ([2]; cGMP activation): 1.91 ± 0.04 (18)
- Po max cGMP ([2]; estimated from state-dependent block by tetracaine): ~0.99
- EC50 [2, 7]: 9.29 ± 0.43 µM
- Po max cGMP ([3]; estimated using tetracaine block): 0.30 ± 0.02
- Hill coefficient ([4]; cGMP activation): 1.82 ± 0.04 (6)
- EC50 [4, 7]: 16.4 ± 1.65 µM
Molecule: Nc1nc2c(ncn2[C@@H]2O[C@@H]3COP(=O)(O)O[C@H]3[C@H]2O)c(=O)[nH]1 [cGMP, cyclic guanosine monophosphate]

- fold shift of K1/2 cGMP to higher concentration ([1]; 1 µM PIP3): ~1.5 fold
- effect on currents elicited by 5 µM cGMP ([1]; 1 µM PIP3 or 10 µM PIP2): attenuated the currents
- Imax cAMP/cGMP after phosphoinositide ([1]; after PIP2 or PIP3 application): 0.30 ± 0.03
- Hill coefficient h after phosphoinositide [1, 8]: 1.6
- K1/2 cGMP after phosphoinositide [1, 8]: 20.8 ± 1.4 µM
- Hill coefficient h after phosphoinositide [1, 9]: 2.0
- K1/2 cGMP after phosphoinositide [1, 9]: 26.5 µM
- Imax cGMP compared with initial values ([1]; saturating cGMP, after 1 µM PIP3 or 10 µM PIP2): 95.4 ± 2.8%
- fold increase Imax cAMP/cGMP ([2]; 1 µM PIP3 after prior application of cyto D): 2.54 ± 0.27 fold
- fold increase in Imax cAMP/cGMP ([2]; 10 µM phosphoinositide applied to inside-out patch): 2.63 ± 0.13 fold
- effect on maximal cGMP current ([2]; 1 mM cGMP): not significantly altered
- K1/2 cAMP after phosphoinositide ([2]; apparent cAMP affinity after PIP3 or PIP2 application): 1.16 ± 0.06 mM
- Po max cAMP after PIP3 ([2]; fluctuation analysis): 0.37 ± 0.07
- Po max cGMP after PIP3 ([2]; fluctuation analysis): 0.93 ± 0.01
- effect on relative cGMP efficacy ([3]; 1 µM PIP3): elevated relative cGMP efficacy
- fold change in K1/2 cGMP after PIP3 ([4]; 10 µM PIP3): 1.02 ± 0.05 fold
Molecule: phosphatidylinositol (3,4,5)-trisphosphate [PIP3]
